Laboratory results published in patent US7582653B2, “Mercaptophenyl naphthyl methane compounds and synthesis thereof” (Council of Scientific & Industrial Research, priority 2003, dated 2009).
Each block holds one compound with its values, some of them ahead of it.

Assays:
[1] = system: chick fetal bones in culture; assay: Inhibition of PTH-induced resorption of 45Ca from chick fetal bones in culture (antiresorptive activity in vitro); assay type: cell-based; settings: for T/C Ratio: PTH-induced 45Ca resorption, 96 h culture
Procedure: Test Procedure for Evaluation of Antiosteoporosis (Antiresorptive) Activity in Vitro:
Test solutions of the compounds of the present invention are prepared in appropriate solvents in concentration range of 5 millimolar to 400 millimolar, most preferably in concentrations of 20 millimolar. 5 μl of each concentration are used for evaluation of antiresorptive activity in vitro. In control experiments, 5 μl of appropriate solvent is used in lieu of test compound. Femur bones are isolated from chick embryos on day 11 post-ovulation. The adhering soft connective tissue is completely removed. Each femur bone is then placed in a drop of phosphate buffered saline (PBS) and is transferred to BGJb culture medium containing ^45CaCl2 and incubated for 2 h. Labeled femur bones are washed 2-3 times with PBS and transferred to BGJb medium containing parathyroid hormone and cultured for 96 h in the presence or absence of the compound of invention or the vehicle in BGJb medium. Contralateral femur of each fetus serves as corresponding control. Culture medium with the respective treatment in each well is changed after 48 h. On termination of the culture at 96 h, bones are transferred to 0.1 N HCl for 24 h. Radioactivity due to ^45Ca in the spent medium collected at 48 and 96 h of culture and HCl extract at 96 h of culture is quantified by Liquid Scintillation Spectrophotometer in 10 ml of the scintillation fluid. Bone resorbing activity is expressed as percentage of ^45Ca released into the culture medium and the effect of the compound of invention as percent of the corresponding contra-lateral control or T/C ratio as shown below:
Appropriate solvents are selected from solvents like water, normal saline, phosphate buffered saline, phosphate buffer, DMSO alone or in a suitable combination thereof.
It was devoid of any pos-coital antifertility and estrogenic activities in rats.

immature OVX rats [2] = assay: Estrogen agonistic activity: uterine weight and morphometry in immature OVX rats; assay type: in vivo, rat
Procedure: Test Procedure for Evaluation of Estrogen Agonistic Activity:
Twenty-one-day-old immature female rats are bilaterally ovariectomized under light ether anesthesia and, after post-operative rest for 7 days, are randomized into different treatment groups. Each rat receives the compound of the invention once daily for 3 consecutive days on days 28-30 of age. A separate group consisting of animals receiving only the vehicle for similar duration serves as control. At autopsy 24 h after the last treatment on day 31 of age, vaginal smear of each rat is taken and uterus is carefully excised, gently blotted, weighed and fixed for histology and histomorphometry using image analysis. Premature opening of vagina, cornification of vaginal epithelium, increase in uterine fresh weight, total uterine and endometrial area and uterine luminal epithelial cell height are taken as parameters for evaluation of estrogen agonistic activity in comparison to rats of vehicle control group (Table 6).
(§1) For image analysis in estrogen agonistic activity evaluation studies, paraffin sections (6 μm thick) of the uterus stained with haematoxylin and eosin were analyzed microscopically. To determine changes in uterine tissue components, areas of whole uterus and endometrium and the thickness of uterine epithelium were measured using a computer-image analysis system (BioVis, Expert Vision, India). Briefly, microscopic images of uterus acquired through a CCD camera were loaded in to the image analysis program and spatially calibrated against a stage micrometer image taken at the same magnification. Using thresholding and line tools, the regions for measurements were selected and the area (mm^2) of whole uterine transection excluding the luminal space, the area (mm^2) of the endometrium only, and the thickness (μm) of luminal epithelial lining were measured. Luminal epithelial thickness data was the average of measurements made at 6 randomly selected sites of the lining (Table 7).

[3] = system: ovariectomized (OVX) female Sprague-Dawley rats; assay: Anti-hyperlipidaemic activity: blood serum total cholesterol in OVX rats; assay type: in vivo, rat; settings: days 1-30; for Total Cholesterol: blood serum
Procedure: Test Procedure for Evaluation of Anti-Hyperlipidaemic Activity:
The in vivo anti-hyperlipidaemic activity is evaluated in colony-bred adult (3-4 month old) female Sprague-Dawley rats or female retired breeder Sprague-Dawley rats ([…]; parity≧3). Animals are bilaterally ovariectomized (OVX) under light ether anesthesia and treated with the compound of the present invention, 17-alfa-ethynylestradiol (EE) or the vehicle once daily on days 1-30 post-ovariectomy (day 1: day of bilateral ovariectomy) by the oral route. One group consisting of females is sham operated and treated similarly with the vehicle. Animals of all the groups are autopsied 24 h after the last treatment. At autopsy, about 5 ml blood samples are collected by cardiac puncture from each rat under light ether anesthesia and serum is isolated and stored at −20° C. until analyzed for total cholesterol. The total cholesterol concentration is measured by a timed-end point method using a Beckman Synchron CX autoanalyser. In the reaction, cholesterol estrase hydrolyses cholesterol esters to free cholesterol and fatty acids. Free cholesterol is oxidized to cholestene-3-one and H2O2 by cholesterol oxidase. Peroxidase catalyses the reaction of H2O2 with 4-amino antipyrine and phenol to produce a colored quinoneimine product. Absorbance is recorded at 520 nm (Table 3).

[4] = system: ovariectomized (OVX) female Sprague-Dawley rats; assay: Antiosteoporosis activity in vivo: bone mineral density in ovariectomized rats; set-up: species or system rat; settings: oral once daily days 1-30 post-ovariectomy
Procedure: Test Procedure for Evaluation of Antiosteoporosis Activity in Vivo:
(§2) The in vivo antiosteoporosis activity is evaluated in colony-bred adult (3-4 month old) female Sprague-Dawley rats or female retired breeder Sprague-Dawley rats ([…]; parity≧3). Animals are bilaterally ovariectomized (OVX) under light ether anesthesia and treated with the compound of the present invention, 17-alfa-ethynylestradiol (EE) or the vehicle once daily on days 1-30 post-ovariectomy (day 1: day of bilateral ovariectomy) by the oral route. One group consisting of females is sham operated and treated similarly with the vehicle. Animals of all the groups are autopsied 24 h after the last treatment. Before autopsy, 24 h fasting urine samples are collected in fresh containers using all-glass metabolic cages and stored at −20° C. until analyzed for calcium, phosphorus and creatinine. At autopsy, about 5 ml blood samples are collected by cardiac puncture from each rat under light ether anesthesia and serum is isolated and stored at −20° C. until analyzed for total and bone specific alkaline phosphatase, osteocalcin and calcium. Uterus of each rat is carefully excised, gently blotted, weighed and fixed for histology. Representative sections (5 μm) from each uterus are stained with haematoxylin and eosin. Femur and tibia of each rat are then dissected free of adhering tissue, fixed in 70% ethanol in physiological saline and stored at −20° C. until Bone Mineral Density (BMD) measurement. Before autopsy, whole body scan of each rat for measurement of BMD is performed on an Hologic QDR-4500A fan-beam densitometer, calibrated daily with Hologic hydroxyapatite anthropomorphic spine phantom using manufacturer provided software for small animals. BMD measurement of isolated bones is performed using identical regions of interest. Serum total alkaline phosphatase, osteocalcin, calcium ion content and urinary calcium and creatinine are estimated colorimetrically using commercial kits (Table 2).

immature OVX rats [5] = assay: Estrogen antagonistic activity: inhibition of EE-induced uterine weight gain in immature OVX rats; assay type: in vivo, rat; settings: daily dose 10 mg/kg with 0.02 mg/kg 17-alfa-ethynylestradiol, 3 days
Procedure: Test Procedure for Evaluation of Estrogen Antagonistic Activity:
Twenty-one-day-old immature female rats are bilaterally ovariectomized under light ether anesthesia and after post-operative rest for 7 days, are randomized into different treatment groups. Each rat receives the compounds of the invention and 0.02 mg/kg dose of 17-alfa-ethynylestradiol in 10% ethanol-distilled water once daily for 3 consecutive days on days 28-30 of age. A separate group consisting of animals receiving only 17-alfa-ethynylestradiol (0.02 mg/kg) in 10% ethanol-distilled water for similar duration are used for comparison. At autopsy on day 31 of age, vaginal smear of each rat is taken and uterus is carefully excised, gently blotted, weighed and fixed for histology and histomorphometry using image analysis. Inhibition in 17-alfa-ethynylestradiol-induced premature opening of vagina, cornification of vaginal epithelium, increase in uterine fresh weight, total uterine and endometrial area and uterine luminal epithelial cell height are taken as parameters for evaluation of estrogen antagonistic activity (Table 8).

MCF-7 cells = assay: Antiproliferative/cytotoxic activity in cultured MCF-7 cells (SRB assay); settings: 48 h incubation
retired breeder OVX rats = assay: Estrogen agonistic activity: uterine weight and morphometry in retired breeder OVX rats; assay type: in vivo, rat
Procedure: as §2, §1

melting point: 150 °C
Compound: CS(=O)(=O)c1ccc(C(=O)c2cccc3ccccc23)cc1 [Example 2, (4-Methylsulfonylphenyl)-naphth-1-yl-ketone]

melting point: 100 °C
Compound: CS(=O)(=O)c1ccc(C(O)c2ccc3ccccc3c2)cc1 (stereo not drawn) [Example 9, (4-Methylsulfonylphenyl)-naphth-2-yl-carbinol]
T/C Ratio ([1]; 100 μM): 1.15

melting point: 160 °C
Compound: CS(=O)(=O)c1ccc(C(=O)c2ccc3ccccc3c2)cc1 [Example 8, (4-Methylsulfonylphenyl)-naphth-2-yl-ketone]

Compound: O=C(c1ccc(OCCN2CCCCC2)cc1)c1c(-c2ccc(O)cc2)sc2cc(O)ccc12 [Raloxifene, reference compound]
T/C ([1]; chick foetal bone assay, concentration not stated): 0.6

Compound: CSc1ccc(C(=O)c2cccc3ccccc23)cc1 [Example 1, (4-Methylthiophenyl)-(naphth-1-yl)-ketone]
Endometrium Epithelial Cell Height (immature OVX rats [2]; daily dose 10 mg/kg): 7.16 μm
Endometrium Total Area (immature OVX rats [2]; daily dose 10 mg/kg): 0.085 mm^2
Increase in uterine weight: Percent of OVX + vehicle treatment group, Percent Increase (immature OVX rats [2]; daily dose 10 mg/kg): 16%
Uterus Total Area (immature OVX rats [2]; daily dose 10 mg/kg): 0.105 Mm^2
Total Cholesterol ([3]; daily dose 10 mg/kg oral): 20.00 mg/dL
% Change in blood serum total cholesterol concentration ([3]; daily dose 10 mg/kg oral): 21.94%
Increase in BMD (g/cm^2): Percent of OVX + vehicle treatment group, Percent Increase ([4]; Femur Global): 8%
Increase in BMD (g/cm^2): Percent of OVX + vehicle treatment group, Percent Increase ([4]; Femur Neck): 13%
Increase in BMD (g/cm^2): Percent of OVX + vehicle treatment group, Percent Increase ([4]; Tibia Global): 3.7%
Increase in BMD (g/cm^2): Percent of OVX + vehicle treatment group, Percent Increase ([4]; Tibia proximal): 13.8%
Percent inhibition in EE induced uterine weight gain (immature OVX rats [5]): 32%
T/C Ratio ([1]; 25 μM): 0.77
T/C Ratio ([1]; 50 μM): 0.60
T/C Ratio ([1]; 100 μM): 0.44
LC50 (MCF-7 cells): Inactive
Endometrium Epithelial Cell Height (retired breeder OVX rats; daily dose 10 mg/kg): 9.63 μm
Endometrium Total Area (retired breeder OVX rats; daily dose 10 mg/kg): 0.37 mm^2
Increase in uterine weight: Percent of OVX + vehicle treatment group, Percent Increase (retired breeder OVX rats; daily dose 10 mg/kg): 41%
Uterus Total Area (retired breeder OVX rats; daily dose 10 mg/kg): 1.38 Mm^2

Compound: CCSc1ccc(C(=O)c2cccc3ccccc23)cc1 [Example 11, (4-Ethylthiophenyl)-naphth-1-yl-ketone]
T/C Ratio ([1]; 100 μM): 0.77

melting point: 160 °C
Compound: CS(=O)(=O)c1ccc(C(O)c2cccc3ccccc23)cc1 (stereo not drawn) [Example 4, (4-Methylsulfonylphenyl)-naphth-1-yl-carbinol]
T/C Ratio ([1]; 100 μM): 0.97

Compound: C#C[C@]1(O)CC[C@H]2[C@@H]3CCc4cc(O)ccc4[C@H]3CC[C@@]21C [EE, 17-alfa-ethynylestradiol, reference compound]
Endometrium Epithelial Cell Height (immature OVX rats [2]; daily dose 0.01 mg/kg): 33.65 μm
Endometrium Total Area (immature OVX rats [2]; daily dose 0.01 mg/kg): 0.57 mm^2
Increase in uterine weight: Percent of OVX + vehicle treatment group, Percent Increase (immature OVX rats [2]; daily dose 0.01 mg/kg): 419%
Uterus Total Area (immature OVX rats [2]; daily dose 0.01 mg/kg): 1.21 Mm^2
Total Cholesterol ([3]; daily dose 0.50 mg/kg oral): <5 mg/dL
Increase in BMD (g/cm^2): Percent of OVX + vehicle treatment group, Percent Increase ([4]; Femur Global): 16.1%
Increase in BMD (g/cm^2): Percent of OVX + vehicle treatment group, Percent Increase ([4]; Femur Neck): 13.5%
Increase in BMD (g/cm^2): Percent of OVX + vehicle treatment group, Percent Increase ([4]; Tibia Global): 3.8%
Increase in BMD (g/cm^2): Percent of OVX + vehicle treatment group, Percent Increase ([4]; Tibia proximal): 25.2%
Endometrium Epithelial Cell Height (retired breeder OVX rats; daily dose 0.5 mg/kg): 46.36 μm
Endometrium Total Area (retired breeder OVX rats; daily dose 0.5 mg/kg): 4.07 mm^2
Increase in uterine weight: Percent of OVX + vehicle treatment group, Percent Increase (retired breeder OVX rats; daily dose 0.5 mg/kg): 260%
Uterus Total Area (retired breeder OVX rats; daily dose 0.5 mg/kg): 6.86 Mm^2

melting point: 80 °C
Compound: CSc1ccc(C(O)c2cccc3ccccc23)cc1 (stereo not drawn) [Example 3, (4-Methylthiophenyl)-naphth-1-yl-carbinol]
T/C Ratio ([1]; 50 μM): 1.41
